Legend:
Format in all cases: in vivo
[1] = tested on: blackgrass (Alopecurus myosuroides); assay: Test C pre-/postemergence greenhouse test, plant response rating 0-100
How it was run: (§1)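 Greenhouse test. Preemergence: seed in loam:sand, sprayed with formulated chemical (solvent + surfactant). Postemergence: 1–4 leaf plants, 2–18 cm, peat-based potting medium. Hold 13–15 d; score visually, 0 (none) to 100 (complete control); dash = not tested.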

[2] = tested on: ragweed (common ragweed, Ambrosia elatior); assay: as above
How it was run: as §1

[3] = tested on: giant foxtail (Setaria faberii); assay: Test A pre-/postemergence greenhouse herbicide test, visual injury rating 0-100
How it was run: (§2)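 Planting in a loam and sand mixture preceded a directed preemergence soil spray; postemergence spray was applied concurrently to one- to two-leaf plants. After roughly 10 days under glass, injury is scored visually against untreated controls, 0–100.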

[4] = tested on: morningglory (Ipomoea spp.); assay: as above
How it was run: as §2

[5] = tested on: wheat (Triticum aestivum); assay: as above
How it was run: as §2

[6] = tested on: corn (Zea mays); assay: as above
How it was run: as §2

[7] = tested on: large (Lg) crabgrass (Digitaria sanguinalis); assay: as above
How it was run: as §2

[8] = tested on: velvetleaf (Abutilon theophrasti); assay: as above
How it was run: as §2

[9] = tested on: pigweed (Amaranthus retroflexus); assay: as above
How it was run: as §2

[10] = tested on: barnyardgrass (Echinochloa crus-galli); assay: as above
How it was run: as §2

[11] = tested on: wild oat (Avena fatua); assay: Test C postemergence greenhouse test, plant response rating 0-100; details: for Plant response rating, Oat, Wild: scale 0 to 100
How it was run: (§3)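 Visual rating vs. controls, 0 (no effect) to 100 (complete control), 13–15 d after postemergence treatment. Potted plants, 1- to 4-leaf stage (2–18 cm), greenhouse-held.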

[12] = tested on: chickweed (common chickweed, Stellaria media); assay: as above; details: for Plant response rating, Chickweed: scale 0 to 100
How it was run: as §3

[13] = tested on: kochia (Kochia scoparia); assay: as above; details: for Plant response rating, Kochia: scale 0 to 100
How it was run: as §3

[14] = Postemergence, 125 g ai/ha, scale 0 to 100
[15] = Postemergence, 250 g ai/ha, scale 0 to 100
[16] = Postemergence, 500 g ai/ha, scale 0 to 100

O=C(c1cncc(F)c1)c1c[nH]nc1-c1cc(Cl)cc(Cl)c1 [Compound 19]
Plant response rating (0 to 100), Blackgrass ([1]; Postemergence, 31 g ai/ha): 0 | Plant response rating (0 to 100), Blackgrass ([1]; Postemergence, 62 g ai/ha): 0 | Plant response rating, Blackgrass [1, 14]: 0 | Plant response rating, Blackgrass [1, 15]: 0 | Plant response rating, Blackgrass ([1]; Preemergence, 31 g ai/ha): 10 | Plant response rating, Blackgrass ([1]; Preemergence, 62 g ai/ha): 0 | Plant response rating, Blackgrass ([1]; Preemergence, 125 g ai/ha): 0 | Plant response rating, Blackgrass ([1]; Preemergence, 250 g ai/ha): 50 | Plant response rating (0 to 100), Ragweed ([2]; Postemergence, 62 g ai/ha): 70 | Plant response rating (0 to 100), Ragweed ([2]; Postemergence, 125 g ai/ha): 80 | Plant response rating, Ragweed [2, 15]: 90 | Plant response rating, Ragweed ([2]; Preemergence, 62 g ai/ha): 85 | Plant response rating, Ragweed ([2]; Preemergence, 125 g ai/ha): 100 | Plant response rating, Ragweed ([2]; Preemergence, 250 g ai/ha): 100 | Plant response rating (0 to 100 scale), Foxtail, Giant ([3]; Postemergence, 1000 g ai/ha): 0 | Plant response rating (0 to 100 scale), Foxtail, Giant ([3]; Preemergence, 1000 g ai/ha): 0 | Plant response rating (0 to 100 scale), Morningglory ([4]; Postemergence, 1000 g ai/ha): 0 | Plant response rating (0 to 100 scale), Morningglory ([4]; Preemergence, 1000 g ai/ha): 0 | Plant response rating (0 to 100 scale), Wheat ([5]; Postemergence, 1000 g ai/ha): 0 | Plant response rating (0 to 100 scale), Wheat ([5]; Preemergence, 1000 g ai/ha): 0 | Plant response rating (0 to 100 scale), Corn ([6]; Postemergence, 1000 g ai/ha): 0 | Plant response rating (0 to 100 scale), Corn ([6]; Preemergence, 1000 g ai/ha): 0 | Plant response rating (0 to 100 scale), Crabgrass, Large ([7]; Postemergence, 1000 g ai/ha): 0 | Plant response rating (0 to 100 scale), Crabgrass, Large ([7]; Preemergence, 1000 g ai/ha): 0 | Plant response rating (0 to 100 scale), Velvetleaf ([8]; Postemergence, 1000 g ai/ha): 100 | Plant response rating (0 to 100 scale), Velvetleaf ([8]; Preemergence, 1000 g ai/ha): 90 | Plant response rating (0 to 100 scale), Pigweed ([9]; Postemergence, 1000 g ai/ha): 100 | Plant response rating (0 to 100 scale), Pigweed ([9]; Preemergence, 1000 g ai/ha): 100 | Plant response rating (0 to 100 scale), Barnyardgrass ([10]; Postemergence, 1000 g ai/ha): 0 | Plant response rating (0 to 100 scale), Barnyardgrass ([10]; Preemergence, 1000 g ai/ha): 0 | Plant response rating (0 to 100), Oat, Wild ([11]; 62 g ai/ha): 0 | Plant response rating (0 to 100), Oat, Wild ([11]; 125 g ai/ha): 0 | Plant response rating, Oat, Wild ([11]; 250 g ai/ha): 0 | Plant response rating (0 to 100), Chickweed ([12]; 31 g ai/ha): 95 | Plant response rating (0 to 100), Chickweed ([12]; 62 g ai/ha): 80 | Plant response rating (0 to 100), Chickweed ([12]; 125 g ai/ha): 98 | Plant response rating, Chickweed ([12]; 250 g ai/ha): 98 | Plant response rating (0 to 100), Kochia ([13]; 62 g ai/ha): 80 | Plant response rating (0 to 100), Kochia ([13]; 125 g ai/ha): 85 | Plant response rating, Kochia ([13]; 250 g ai/ha): 90

CCOC(OCC)(c1cccs1)c1c[nH]nc1-c1cc(Cl)cc(Cl)c1 [Compound 27]
Plant response rating (0 to 100), Blackgrass ([1]; Postemergence, 62 g ai/ha): 0 | Plant response rating, Blackgrass [1, 14]: 5 | Plant response rating, Blackgrass [1, 15]: 0 | Plant response rating, Blackgrass [1, 16]: 0 | Plant response rating, Blackgrass ([1]; Preemergence, 62 g ai/ha): 20 | Plant response rating, Blackgrass ([1]; Preemergence, 125 g ai/ha): 0 | Plant response rating, Blackgrass ([1]; Preemergence, 250 g ai/ha): 50 | Plant response rating, Blackgrass ([1]; Preemergence, 500 g ai/ha): 0 | Plant response rating (0 to 100), Ragweed ([2]; Postemergence, 62 g ai/ha): 65 | Plant response rating (0 to 100), Ragweed ([2]; Postemergence, 125 g ai/ha): 75 | Plant response rating, Ragweed [2, 15]: 90 | Plant response rating, Ragweed [2, 16]: 75 | Plant response rating, Ragweed ([2]; Preemergence, 62 g ai/ha): 98 | Plant response rating, Ragweed ([2]; Preemergence, 125 g ai/ha): 70 | Plant response rating, Ragweed ([2]; Preemergence, 250 g ai/ha): 70 | Plant response rating, Ragweed ([2]; Preemergence, 500 g ai/ha): 100 | Plant response rating (0 to 100 scale), Foxtail, Giant ([3]; Postemergence, 125 g ai/ha): 0 | Plant response rating (0 to 100 scale), Foxtail, Giant ([3]; Postemergence, 500 g ai/ha): 0 | Foxtail, Giant plant response rating (0 = no effect, 100 = complete control) ([3]; Preemergence, 125 g ai/ha): 0 | Plant response rating (0 to 100 scale), Foxtail, Giant ([3]; Preemergence, 500 g ai/ha): 0 | Plant response rating (0 to 100 scale), Morningglory ([4]; Postemergence, 125 g ai/ha): 0 | Plant response rating (0 to 100 scale), Morningglory ([4]; Postemergence, 500 g ai/ha): 0 | Morningglory plant response rating (0 = no effect, 100 = complete control) ([4]; Preemergence, 125 g ai/ha): 0 | Plant response rating (0 to 100 scale), Morningglory ([4]; Preemergence, 500 g ai/ha): 0 | Plant response rating (0 to 100 scale), Wheat ([5]; Postemergence, 125 g ai/ha): 0 | Plant response rating (0 to 100 scale), Wheat ([5]; Postemergence, 500 g ai/ha): 0 | Wheat plant response rating (0 = no effect, 100 = complete control) ([5]; Preemergence, 125 g ai/ha): 0 | Plant response rating (0 to 100 scale), Wheat ([5]; Preemergence, 500 g ai/ha): 0 | Plant response rating (0 to 100 scale), Corn ([6]; Postemergence, 125 g ai/ha): 0 | Plant response rating (0 to 100 scale), Corn ([6]; Postemergence, 500 g ai/ha): 0 | Corn plant response rating (0 = no effect, 100 = complete control) ([6]; Preemergence, 125 g ai/ha): 0 | Plant response rating (0 to 100 scale), Corn ([6]; Preemergence, 500 g ai/ha): 0 | Plant response rating (0 to 100 scale), Crabgrass, Large ([7]; Postemergence, 125 g ai/ha): 0 | Plant response rating (0 to 100 scale), Crabgrass, Large ([7]; Postemergence, 500 g ai/ha): 0 | Crabgrass, Large plant response rating (0 = no effect, 100 = complete control) ([7]; Preemergence, 125 g ai/ha): 0 | Plant response rating (0 to 100 scale), Crabgrass, Large ([7]; Preemergence, 500 g ai/ha): 0 | Plant response rating (0 to 100 scale), Velvetleaf ([8]; Postemergence, 125 g ai/ha): 80 | Plant response rating (0 to 100 scale), Velvetleaf ([8]; Postemergence, 500 g ai/ha): 90 | Velvetleaf plant response rating (0 = no effect, 100 = complete control) ([8]; Preemergence, 125 g ai/ha): 80 | Plant response rating (0 to 100 scale), Velvetleaf ([8]; Preemergence, 500 g ai/ha): 80 | Plant response rating (0 to 100 scale), Pigweed ([9]; Postemergence, 125 g ai/ha): 80 | Plant response rating (0 to 100 scale), Pigweed ([9]; Postemergence, 500 g ai/ha): 100 | Pigweed plant response rating (0 = no effect, 100 = complete control) ([9]; Preemergence, 125 g ai/ha): 100 | Plant response rating (0 to 100 scale), Pigweed ([9]; Preemergence, 500 g ai/ha): 100 | Plant response rating (0 to 100 scale), Barnyardgrass ([10]; Postemergence, 125 g ai/ha): 0 | Plant response rating (0 to 100 scale), Barnyardgrass ([10]; Postemergence, 500 g ai/ha): 0 | Barnyardgrass plant response rating (0 = no effect, 100 = complete control) ([10]; Preemergence, 125 g ai/ha): 0 | Plant response rating (0 to 100 scale), Barnyardgrass ([10]; Preemergence, 500 g ai/ha): 0 | Plant response rating (0 to 100), Oat, Wild ([11]; 62 g ai/ha): 0 | Plant response rating (0 to 100), Oat, Wild ([11]; 125 g ai/ha): 0 | Plant response rating, Oat, Wild ([11]; 250 g ai/ha): 5 | Plant response rating, Oat, Wild ([11]; 500 g ai/ha): 5 | Plant response rating (0 to 100), Chickweed ([12]; 62 g ai/ha): 80 | Plant response rating (0 to 100), Chickweed ([12]; 125 g ai/ha): 85 | Plant response rating, Chickweed ([12]; 250 g ai/ha): 90 | Plant response rating, Chickweed ([12]; 500 g ai/ha): 90 | Plant response rating (0 to 100), Kochia ([13]; 62 g ai/ha): 80 | Plant response rating (0 to 100), Kochia ([13]; 125 g ai/ha): 80 | Plant response rating, Kochia ([13]; 250 g ai/ha): 90 | Plant response rating, Kochia ([13]; 500 g ai/ha): 90

— patent US10167262B2, “Herbicidal substituted 3-arylpyrazoles” (FMC CORPORATION, priority 2014, dated 2019)
